In brackets after ≈: the same amount, converted by molar mass. Several values for one entry are separate records, joined by “and”; a condition that tells them apart may be missing. Equal values may be shown once.
Columns and labels:
HER-2 [1] = molecular target: T1, HER-2 (Homo sapiens, UniProt P04626); assay: In vitro HER-2 inhibition assay; type: biochemical; conditions: mean of three replicates ± S.D.
T1 construct: Effects of compounds 5e and 5a on VEGFR-2 and HER2 (µM) in MCF-7 cells compared to control; endogenous in cells; host or cells: MCF-7
Description: (§1) Assessment was performed using a VEGFR-2 (human) SimpleStep ELISA kit (ab213476) and HER-2 (human) SimpleStep ELISA kit (ab100510) (abcam® Cambridge, CB2 0AX, Cambridge, UK) according to manufacturer instructions. In brief, tissue culture supernatant was added to the anti-tag antibody-coated wells, followed by the secondary antibody mix. To remove unbound material, the wells were washed after incubation. […] The final step in the transformation from blue to yellow was the addition of a stop solution, which halted the reaction. The intensity of the signal generated at 450 nm was proportional to the amount of bound analyte.

VEGFR-2 [2] = assay: VEGFR-2 expression level in MCF-7 cells (ELISA); type: cell-based, human; conditions: untreated control 1573.00 ± 36.9
Description: (§2) In this study, we further explored the impact of cyanopyridones 5a and 5e on VEGFR-2 and HER-2 expression levels in MCF-7 cells (Figure 5). The results disclosed that both 5a and 5e had interesting profiles for reduction of VEGFR-2/HER-2 expression levels compared to the control cells and the reference drug taxol.
as §1

HepG2 cell line = assay: MTT cytotoxicity assay, HepG2; type: cell-based; conditions: Homo sapiens, 48 h, mean ± S.D. of three experiments, 50% growth inhibition
Description: (§3) The MTT colorimetric assay is a very sensitive method used to measure the potential cytotoxicity (loss of viable cells) of targeted compounds. […] The drug taxol was used as the reference standard. Cell morphological changes were recorded to determine the cytotoxic effect, and the results are found in Table 1, Figure 3.
(§4) In vitro testing was performed on HepG2 and MCF-7 cell lines to determine the antitumor activity of the newly synthesized chemical compounds. Both cell lines originally came from Egypt’s National Cancer Institute (NCI), housed at Cairo University. At 37 °C with 5% […], the cells were grown in RPMI 1640 containing 10% fetal bovine serum, 50 micrograms per milliliter of streptomycin, and 100 international units per milliliter of penicillin. After trypsinization with 0.05% trypsin-EDTA, cell growth and morphology were evaluated, and passages were made when cells reached 80–90% confluence.
(§5) The MTT assay protocol is described in the Supplementary Materials.
(§6) The MTT assay was used to determine the effects of the newly synthesized compounds on cell viability. In a nutshell, 1 × 10^4 cells/well were seeded in a 96-well plate and allowed to grow for 24 hours. After 24 hours, the original medium was discarded, and a new compounds-containing medium was added. After 48 hours, the media was changed out and 100 μL of MTT (10 μL from (MTT) stock solution (5 mg/ml in PBS) in 100 μL media) was added to each well, and the plates were incubated at 37° C for 4 hours. After adding 100 μL of acidified isopropanol to each well, the formed formazan crystals were dissolved, and the absorbance was read at 570 nm using an ELISA microplate reader (Epoc-2C micro-plate reader, Bio Tek, VT, USA). There were three separate runs of every experiment. Half-maximal inhibitory concentrations (IC50) were determined by fitting sigmoidal dose-response curves.
(§7) GraphPad Prism 8.0 (San Diego, CA, USA) analyzed all results. All results (three independent experiments) were shown as means ± standard deviation. The significance of the differences in the outcomes of all groups was examined using ANOVA and Tukey’s

HER-2 [3] = assay: HER-2 expression level in MCF-7 cells (ELISA); type: cell-based, human; conditions: untreated control 559.00 ± 33.9
Description: as §2, §1

MCF-7 cell line = assay: MTT cytotoxicity assay, MCF-7; type: cell-based; conditions: Homo sapiens, MCF7, 48 h, mean ± S.D. of three experiments, 50% growth inhibition
Description: as §3, §4, §5, §6, §7

VEGFR-2 [4] = molecular target: T2, VEGFR-2 (Homo sapiens, UniProt P35968); assay: In vitro VEGFR-2 inhibition assay; type: biochemical; conditions: mean of three replicates ± S.D.
T2 construct: Effects of compounds 5e and 5a on VEGFR-2 and HER2 (µM) in MCF-7 cells compared to control; endogenous in cells; host or cells: MCF-7
Description: as §1

MCF-7 breast cancer = tested on: MCF-7 breast cancer; parameters: method as in PMID 26729087; conditions: cited from earlier work
SF-268 CNS cancer = tested on: SF-268 CNS cancer; parameters: method as in PMID 26729087; conditions: cited from earlier work
[5] = tested on: NCI-H460 non-small cell lung cancer; parameters: method as in PMID 26729087; conditions: cited from earlier work
HER-2 [6] = tested on: HER-2; parameters: method as in doi:10.1039/C5MD00602C; conditions: reported by Pfizer; cited from earlier work

T1 sequence (P04626 23-1255): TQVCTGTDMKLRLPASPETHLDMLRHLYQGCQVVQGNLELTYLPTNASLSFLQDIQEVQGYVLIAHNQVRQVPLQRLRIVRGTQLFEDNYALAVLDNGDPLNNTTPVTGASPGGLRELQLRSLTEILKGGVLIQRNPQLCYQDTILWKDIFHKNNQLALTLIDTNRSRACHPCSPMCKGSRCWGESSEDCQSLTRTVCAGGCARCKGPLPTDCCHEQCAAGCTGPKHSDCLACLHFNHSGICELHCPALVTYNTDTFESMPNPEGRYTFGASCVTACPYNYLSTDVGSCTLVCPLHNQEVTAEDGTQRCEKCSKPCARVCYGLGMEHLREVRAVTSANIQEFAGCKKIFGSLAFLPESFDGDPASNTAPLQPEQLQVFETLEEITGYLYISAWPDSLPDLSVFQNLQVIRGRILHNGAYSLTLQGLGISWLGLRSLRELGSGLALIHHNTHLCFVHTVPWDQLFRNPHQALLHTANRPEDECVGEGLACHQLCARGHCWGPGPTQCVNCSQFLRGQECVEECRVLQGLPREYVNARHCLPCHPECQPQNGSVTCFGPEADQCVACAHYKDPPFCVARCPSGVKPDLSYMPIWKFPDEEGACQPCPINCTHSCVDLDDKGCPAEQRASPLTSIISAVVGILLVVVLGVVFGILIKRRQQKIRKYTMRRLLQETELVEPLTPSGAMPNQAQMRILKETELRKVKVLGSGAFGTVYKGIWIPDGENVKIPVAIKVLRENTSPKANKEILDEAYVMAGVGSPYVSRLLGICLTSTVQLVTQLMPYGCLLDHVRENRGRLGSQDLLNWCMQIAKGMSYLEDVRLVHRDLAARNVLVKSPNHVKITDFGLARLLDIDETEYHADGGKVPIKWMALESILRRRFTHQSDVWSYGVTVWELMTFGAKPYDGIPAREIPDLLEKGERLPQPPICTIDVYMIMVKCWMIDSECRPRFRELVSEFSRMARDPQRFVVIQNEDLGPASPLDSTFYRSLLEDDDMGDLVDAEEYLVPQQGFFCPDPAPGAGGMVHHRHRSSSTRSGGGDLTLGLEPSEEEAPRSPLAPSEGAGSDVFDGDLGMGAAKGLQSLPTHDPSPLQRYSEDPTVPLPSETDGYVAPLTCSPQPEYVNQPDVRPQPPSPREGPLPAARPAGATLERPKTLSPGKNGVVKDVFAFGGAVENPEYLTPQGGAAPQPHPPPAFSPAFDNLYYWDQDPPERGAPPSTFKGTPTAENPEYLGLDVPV
T2 sequence (P35968 20-1356): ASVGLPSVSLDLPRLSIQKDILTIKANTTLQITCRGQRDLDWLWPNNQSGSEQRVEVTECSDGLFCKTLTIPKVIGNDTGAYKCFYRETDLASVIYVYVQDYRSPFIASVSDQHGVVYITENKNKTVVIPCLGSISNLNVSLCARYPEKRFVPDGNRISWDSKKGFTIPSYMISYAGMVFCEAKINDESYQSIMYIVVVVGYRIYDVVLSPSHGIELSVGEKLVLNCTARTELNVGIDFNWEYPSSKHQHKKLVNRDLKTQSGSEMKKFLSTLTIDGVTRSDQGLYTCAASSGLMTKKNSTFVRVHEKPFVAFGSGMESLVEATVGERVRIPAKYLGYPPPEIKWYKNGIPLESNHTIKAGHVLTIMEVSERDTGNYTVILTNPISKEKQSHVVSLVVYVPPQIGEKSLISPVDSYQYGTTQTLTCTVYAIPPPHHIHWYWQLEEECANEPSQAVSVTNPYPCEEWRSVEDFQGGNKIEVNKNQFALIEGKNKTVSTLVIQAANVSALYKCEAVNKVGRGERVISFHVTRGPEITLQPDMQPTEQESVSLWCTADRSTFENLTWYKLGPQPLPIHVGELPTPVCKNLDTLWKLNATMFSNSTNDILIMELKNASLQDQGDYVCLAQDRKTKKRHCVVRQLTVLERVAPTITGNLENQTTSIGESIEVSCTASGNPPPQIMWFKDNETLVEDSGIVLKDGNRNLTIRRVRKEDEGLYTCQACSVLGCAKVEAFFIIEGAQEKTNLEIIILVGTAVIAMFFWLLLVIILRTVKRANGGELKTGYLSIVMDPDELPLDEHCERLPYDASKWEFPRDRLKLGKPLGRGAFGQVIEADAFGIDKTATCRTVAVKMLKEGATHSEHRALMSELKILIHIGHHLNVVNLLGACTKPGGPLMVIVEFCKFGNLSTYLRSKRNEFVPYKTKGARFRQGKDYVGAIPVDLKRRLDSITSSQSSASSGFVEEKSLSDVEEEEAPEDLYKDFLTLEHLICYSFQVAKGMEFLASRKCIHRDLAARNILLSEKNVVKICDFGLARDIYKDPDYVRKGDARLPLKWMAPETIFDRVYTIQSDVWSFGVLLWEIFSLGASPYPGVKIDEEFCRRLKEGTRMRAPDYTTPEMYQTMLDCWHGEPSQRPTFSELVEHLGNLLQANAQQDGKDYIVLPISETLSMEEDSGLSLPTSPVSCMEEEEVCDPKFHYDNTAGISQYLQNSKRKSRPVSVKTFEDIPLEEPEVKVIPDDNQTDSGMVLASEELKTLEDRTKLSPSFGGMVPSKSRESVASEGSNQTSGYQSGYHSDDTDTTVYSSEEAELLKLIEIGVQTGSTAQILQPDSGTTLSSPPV

Row | Compound | melting point [°C] | IC50 (HepG2 cell line) [µM] | IC50 (MCF-7 cell line) [µM] | other results
1 | N#Cc1c(-c2ccccc2)c(C#N)c(=O)n(-c2cccc(C(F)(F)F)c2)c1N [Compound 5a] | 280 to 282 | 2.71 ± 0.15 | 1.77 ± 0.1 | IC50 (HER-2 [1]): 0.168 ± 0.009 µM; VEGFR-2 (pg/mL) expression level (VEGFR-2 [2]): 884.30 pg/mL and 884.30 ± 29.3 pg/mL; HER-2 (pg/mL) expression level (HER-2 [3]): 299.50 pg/mL and 299.50 ± 4.7 pg/mL; IC50 (VEGFR-2 [4]): 0.217 ± 0.02 µM
2 | N#Cc1c(-c2ccc(O)cc2)c(C#N)c(=O)n(-c2cccc(C(F)(F)F)c2)c1N [Compound 5b] | 330 to 332 | 11.4 ± 0.61 | 24.7 ± 1.33 | –
3 | N#Cc1c(-c2ccc([N+](=O)[O-])cc2)c(C#N)c(=O)n(-c2cccc(C(F)(F)F)c2)c1N [Compound 5c] | 229 to 230 | 4.01 ± 0.22 | 20.2 ± 1.09 | –
4 | N#Cc1c(-c2ccc(Cl)cc2)c(C#N)c(=O)n(-c2cccc(C(F)(F)F)c2)c1N [Compound 5d] | 324 to 326 | 22.5 ± 1.22 | 13.7 ± 0.74 | –
5 | N#Cc1c(-c2ccc(Cl)cc2Cl)c(C#N)c(=O)n(-c2cccc(C(F)(F)F)c2)c1N [Compound 5e] | 239 to 241 | 10.7 ± 0.58 | 1.39 ± 0.08 | IC50 (HER-2 [1]): 0.077 ± 0.003 µM; VEGFR-2 (pg/mL) expression level (VEGFR-2 [2]): 510.00 pg/mL and 510.00 ± 20.2 pg/mL; HER-2 (pg/mL) expression level (HER-2 [3]): 148.60 pg/mL and 148.60 ± 5.5 pg/mL; IC50 (VEGFR-2 [4]): 0.124 ± 0.011 µM
6 | COc1cc(-c2c(C#N)c(N)n(-c3cccc(C(F)(F)F)c3)c(=O)c2C#N)cc(OC)c1OC [Compound 5f] | 195 to 197 | 40.6 ± 2.19 | 54.2 ± 2.93 | –
7 | N#Cc1c(-c2ccc(O)cc2)c2c(=O)[nH]cnc2n(-c2cccc(C(F)(F)F)c2)c1=O [Compound 6a] | 300 to 302 | 7.27 ± 0.39 | – | –
8 | N#Cc1c(-c2ccc(Cl)cc2)c2c(=O)[nH]cnc2n(-c2cccc(C(F)(F)F)c2)c1=O [Compound 6b] | 350 to 352 | 2.68 ± 0.14 | 14 ± 0.76 | –
9 | Cc1nc2c(c(-c3ccccc3)c(C#N)c(=O)n2-c2cccc(C(F)(F)F)c2)c(=O)[nH]1 [Compound 7a] | 308 to 310 | 16.3 ± 0.88 | 10.7 ± 0.58 | –
10 | Cc1nc2c(c(-c3ccc(Cl)cc3)c(C#N)c(=O)n2-c2cccc(C(F)(F)F)c2)c(=O)[nH]1 [Compound 7b] | 330 to 332 | 19.6 ± 1.06 | 6.22 ± 0.34 | –
11 | Cc1nc2c(c(-c3ccc(Cl)cc3Cl)c(C#N)c(=O)n2-c2cccc(C(F)(F)F)c2)c(=O)[nH]1 [Compound 7c] | 333 to 335 | 5.04 ± 0.27 | 9.28 ± 0.5 | –
12 | CC(=O)Oc1ccc(-c2c(C#N)c(=O)n(-c3cccc(C(F)(F)F)c3)c3nc(C)[nH]c(=O)c23)cc1 [Compound 7d] | 320 to 322 | 52.5 ± 2.84 | 43.4 ± 2.35 | –
13 | COc1cc(-c2c(C#N)c(=O)n(-c3cccc(C(F)(F)F)c3)c3nc(C)[nH]c(=O)c23)cc(OC)c1OC [Compound 7e] | 150 to 152 | 71.9 ± 3.88 | 27.8 ± 1.5 | –
14 | CCC(=O)COc1nc(-c2cc(Cl)ccc2Cl)cc(-c2ccc(F)cc2)c1C#N [III] | – | – | – | IC50 cell growth inhibition, MCF-7 (MCF-7 breast cancer): 0.02 µg/mL (≈ 0.0466 µM); IC50 cell growth inhibition, SF-268 (SF-268 CNS cancer): 0.02 µg/mL (≈ 0.0466 µM); IC50 cell growth inhibition, NCI-H460 [5]: 0.01 µg/mL (≈ 0.0233 µM)
15 | CC(=O)O[C@H]1C(=O)[C@@]2(C)[C@H]([C@H](OC(=O)c3ccccc3)[C@]3(O)C[C@H](OC(=O)[C@H](O)[C@@H](NC(=O)c4ccccc4)c4ccccc4)C(C)=C1C3(C)C)[C@]1(OC(C)=O)CO[C@@H]1C[C@@H]2O [Taxol, paclitaxel, reference compound] | – | 14.6 ± 0.79 | 8.48 ± 0.46 | VEGFR-2 (pg/mL) expression level (VEGFR-2 [2]): 660.10 ± 31.4 pg/mL; HER-2 (pg/mL) expression level (HER-2 [3]): 199.10 ± 8.6 pg/mL
16 | COC(=O)NCC#Cc1ccc2ncnc(Nc3ccc(Oc4cccc(C)n4)c(C)c3)c2c1 [V] | – | – | – | anti-HER-2 activity (HER-2 [6]): lower than 42 nM
